# Read-outs that look alike come from different tables or passages of the source.
# Test system: reaginic antibody-induced passive cutaneous anaphylaxis (PCA) reaction
# Assay: Passive Cutaneous Anaphylaxis (PCA) Test in rats (anti-asthma activity)
# Format: in vivo, rat
# Conditions: for ED50: Rattus norvegicus, read-out: ID50 (the source's name); for anti-asthma activity: rat PCA testing, result in words
# Text: The skin of rats is first sensitized by the intradermal injection of reaginic (allergic) antibody. Twenty-four hours later, the animals receive a challenge injection of antigen together with Evan's blue dye given intravenously. The antigen, thus injected directly into the circulation, encounters the antibody in the skin and an "allergic reaction" occurs which is identified by the formation of intracutaneous edema. The edema is marked by the presence of the Evan's blue dye in the circulation.
# The anti-asthmatic activity of these compounds is determined by the reaginic antibody-induced passive cutaneous anaphylaxis (PCA) reaction in rats.
# In this test, 0.05 ml of appropriately diluted whole rat serum containing IgE antibody is injected intradermally into the skin of a rat. The next day, the animals are dosed with the test compound ten minutes prior to the i.v. challenge injection of antigen and Evan's blue dye. Thirty minutes later, the animals are sacrificed, the skin reflected and the reaction quantitated by measuring the dye-marked edema and scoring the color intensity of the reaction.
# [1] = IP, rats dosed ten min. prior to challenge
# [2] = IP, 75 mpk, rats dosed ten min. prior to challenge
structure (smiles),measurement,setting,value
"CCOC(=O)c1cc2c3ccccc3[nH]c(=O)n2n1 [5,6-Dihydro-5-oxopyrazolo[1,5-c]quinazoline-2-carboxylic acid, ethyl ester]",Maximum % inhibition,"IP, 10 mg/kg, rats dosed ten min. prior to challenge",94%
same,Maximum % inhibition,"PO, 9 mg/kg, rats dosed ten min. prior to challenge",95%
same,ED50,[1],2 mg/kg
same,ED50,"PO (orally), rats dosed ten min. prior to challenge",3 mg/kg
same,anti-asthma activity,,has anti-asthma activity
"CCOC(=O)c1cc2c3cc(Cl)ccc3[nH]c(=O)n2n1 [9-Chloro-5,6-dihydro-5-oxopyrazolo[1,5-c]quinazoline-2-carboxylic acid, ethyl ester]",Maximum % inhibition,[2],93%
same,ED50,[1],9 mg/kg
same,anti-asthma activity,,has anti-asthma activity
"O=c1[nH]c2ccccc2c2ccnn12 [Pyrazolo[1,5-c]quinazoline-5(6H)-one, Pyrazolo[1,5-c]quinazolin-5(6H)-one]",Maximum % inhibition,[2],59%
same,anti-asthma activity,,has anti-asthma activity
CCOC(=O)c1nn2c(=O)[nH]c3ccccc3c2c1C [Example 15],% Inhibition,"PCA, IP, 150 mpk",63%
same,ED50,"PCA, IP",58 mg/kg
"CCOC(=O)c1c(-c2ccccc2)nn2c(=O)[nH]c3ccccc3c12 [5,6-Dihydro-5-oxo-2-phenylpyrazolo[1,5-c]quinazoline-1-carboxylic acid, ethyl ester]",Maximum % inhibition,[2],42%
same,anti-asthma activity,,has anti-asthma activity
O=C(c1ccccc1)c1cc2c3ccccc3[nH]c(=O)n2n1 [Example 16],% Inhibition,"PCA, IP, 150 mpk",37%
"O=C(O)c1cc2c3ccccc3[nH]c(=O)n2n1 [Example 13, 5,6-Dihydro-5-oxopyrazolo-[1,5-c]quinazoline-2-carboxylic acid]",% Inhibition,"PCA, IP, 75 mpk",36%
COC(=O)c1nn2c(=O)[nH]c3ccccc3c2c1C(=O)OC [Example 11],% Inhibition,"PCA, IP, 150 mpk",21%
CC(=O)c1cc2c3ccccc3n(C)c(=O)n2n1 [Example 14],% Inhibition,"PCA, IP, 150 mpk",32%
"CCCCOC(=O)c1cc2c3ccccc3[nH]c(=O)n2n1 [5,6-Dihydro-5-oxopyrazolo[1,5-c]-quinazoline-2-carboxylic acid, n-butyl ester]",Maximum % inhibition,"IP, (150 mpk) (10 mg/kg) both printed, rats dosed ten min. prior to challenge",78%
same,ED50,[1],9 mg/kg
same,anti-asthma activity,,has anti-asthma activity
CCOC(=O)c1cc2c3cc(OC)ccc3[nH]c(=O)n2n1 [Example 17],% Inhibition,"PCA, IP, 25 mpk",90%
CC(=O)c1cc2c3ccccc3[nH]c(=O)n2n1 [Example 12],% Inhibition,"PCA, IP, 75 mpk",32%
